# Reference: patent US7119229B2 (priority 2001, dated 2006)
# Like-named read-outs stand apart in the source and are kept apart here.
# Legend:
# ICR mice [1] = assay: Acute (intravenous administration) toxicity assay; settings: for Days for the test (death) 2: day 2; for Days for the test (death) Total: deaths/mice; for Days for the test (death) 1: day 1
# TA100 = tested on: TA100
# Description: (§1) This assay is carried out to test mutagenicity of chemical substances using histidine auxotrophic strains that are one of Salmonella Typhimurium mutants. […] When various mutagens are added to the culture medium, only revertants generated by reverse mutation survive.
# (§2) Ames test was carried out using […]. […] After incubation, the number of revertant colonies was counted. 3 plates were prepared for each test and the average was calculated.
# TA98 = tested on: TA98
# Description: as §1, §2
# TA1535 = settings: TA1525 (so in the source)
# Description: as §1, §2
# ICR mice [2] = assay: Oral administration toxicity assay; settings: for Days for the test (death) Total: deaths/mice; for Days for the Test (death) 4: day 4
# [3] = tested on: WP2 uvrA strains (tryptophan auxotrophic strains); assay: Reverse mutation assay (Ames test), E. coli WP2 uvrA
# Description: as §1, §2
# TA1537 = assay: Reverse mutation assay (Ames test), TA1537
# Description: as §1, §2
# [4] = tested on: BALB/c mouse spleen cell (responding) and DBA/2 mouse spleen cell (stimulating); format: cell-based
# Description: MLR tests were carried out to determine the immunosuppressive effect of an immunosuppressive candidate material. When a responding cell (BALB/c mouse spleen cell) and a stimulating cell (DBA/2 mouse spleen cell) were cultured separately, the cells grew little. On the contrary, when the cells were simultaneously cultured, the cells were proliferated due to induction of an antigen-antibody reaction. The proliferated cells were treated with the immunosuppressive candidate material for measurement of the proliferation inhibitory extent.
# After culturing for 72 hours at a CO2 incubator, a 20 μl MTS solution was added to each well, followed by further culturing for 2 to 4 hours and measuring OD at […] by using ELISA.
# XF-498 (human CNS) = assay: SRB cytotoxicity assay, XF498; format: cell-based; settings: 72 hours, read-out: ED50 XF498
# Description: (§3) Human tumor cells, including MCF-7 (human breast adenomatous tumor), MCF-7/DOX (adriamycin resistant cell strain), MRS-SA (human uterine sarcoma), MES-SA/DX5 (adriamycin resistant cell strain), A 549 (human non-small cell lung), SKOV-3 (human ovarian), SKMEL-2 (human melanoma), XF-498 (human CNS), HCT-15 (human colon) were incubated at 37° C. in the presence of 5% CO2 using a DMEM culture medium. The respective cells were seeded into each well of 96-well plates at a concentration of 2×10^3˜5×10^3 cells/well. […] Each cell line of the resultant plates was fixed with trichloroacetic acid (TCA), stained with 0.4% SRB solution and rinsed with 1% acetic acid. Thereafter, the dye was dissolved in 10 mM Tris base to measure the optical density (OD) at 520 nm.
# [5] = tested on: MES-SA/DX5 (adriamycin resistant cell strain); assay: SRB cytotoxicity assay, MES-SA/DX5; format: cell-based; settings: Homo sapiens, MES-SA/Dx5; SRB, 72 hours; read-out: ED50 MES-SA/DX5
# Description: as §3
# [6] = tested on: MCF-7 (human breast adenomatous tumor); assay: SRB cytotoxicity assay, MCF7; format: cell-based; settings: MCF7, SRB, 72 hours, read-out: ED50 MCF7
# Description: as §3
# [7] = tested on: A 549 (human non-small cell lung); assay: SRB cytotoxicity assay, A549; format: cell-based; settings: A549, SRB, 72 hours, read-out: ED50 A549
# Description: as §3
# HCT-15 (human colon) = assay: SRB cytotoxicity assay, HCT15; format: cell-based; settings: HCT-15, SRB, 72 hours, read-out: ED50 HCT15
# Description: as §3
# SKOV-3 (human ovarian) = assay: SRB cytotoxicity assay, SK-OV-3; format: cell-based; settings: 72 hours, read-out: ED50 SK-OV-3
# Description: as §3
# [8] = tested on: MES-SA (human uterine sarcoma); assay: SRB cytotoxicity assay, MES-SA; format: cell-based; settings: SRB, 72 hours, read-out: ED50 MES-SA
# Description: as §3
# [9] = tested on: MCF-7/DOX (adriamycin resistant cell strain); assay: SRB cytotoxicity assay, MCF-7/DOX; format: cell-based; settings: Homo sapiens, MCF7-DOX; SRB, 72 hours; read-out: ED50 MCF-7/DOX
# Description: as §3
# SKMEL-2 (human melanoma) = assay: SRB cytotoxicity assay, SK-MEL-2; format: cell-based; settings: SK-MEL-2, SRB, 72 hours, read-out: ED50 SK-MEL-2
# Description: as §3
structure (smiles),measurement,setting,value
COc1cc2c(c(OC)c1OC)-c1ccc(OC)c(=O)cc1[C@@H](NC(C)=O)CC2 [Colchicine],Days for the test (death) 2,ICR mice [1]; 2 mg/kg,3
same,Days for the Test (death) 3,"ICR mice [1]; 2 mg/kg, day 3",1
same,Days for the test (death) 6,"ICR mice [1]; 2 mg/kg, day 6",1
same,Days for the test (death) Total,ICR mice [1]; 2 mg/kg,5/5
same,Days for the test (death) 1,ICR mice [1]; 5 mg/kg,1
same,Days for the test (death) 2,ICR mice [1]; 5 mg/kg,4
same,Days for the test (death) Total,ICR mice [1]; 5 mg/kg,5/5
same,Days for the test (death) 1,ICR mice [1]; 10 mg/kg,4
same,Days for the test (death) 2,ICR mice [1]; 10 mg/kg,1
same,Days for the test (death) Total,ICR mice [1]; 10 mg/kg,5/5
same,Colony/Plate S-9 Mixture (+),"TA100; TA100, 317.5 μg/Plate",79 Colony/Plate
same,Colony/Plate S-9 Mixture (−),"TA100; TA100, 317.5 μg/Plate",115 Colony/Plate
same,Colony/Plate S-9 Mixture (+),"TA100; TA100, 625 μg/Plate",76 Colony/Plate
same,Colony/Plate S-9 Mixture (−),"TA100; TA100, 625 μg/Plate",110 Colony/Plate
same,Colony/Plate S-9 Mixture (+),"TA100; TA100, 1250 μg/Plate",100 Colony/Plate
same,Colony/Plate S-9 Mixture (−),"TA100; TA100, 1250 μg/Plate",112 Colony/Plate
same,Colony/Plate S-9 Mixture (+),"TA100; TA100, 2500 μg/Plate",91 Colony/Plate
same,Colony/Plate S-9 Mixture (−),"TA100; TA100, 2500 μg/Plate",115 Colony/Plate
same,Colony/Plate S-9 Mixture (+),"TA100; TA100, 5000 μg/Plate",78 Colony/Plate
same,Colony/Plate S-9 Mixture (−),"TA100; TA100, 5000 μg/Plate",108 Colony/Plate
same,Colony/Plate S-9 Mixture (+),"TA98; TA98, 317.5 μg/Plate",37 Colony/Plate
same,Colony/Plate S-9 Mixture (−),"TA98; TA98, 317.5 μg/Plate",29 Colony/Plate
same,Colony/Plate S-9 Mixture (+),"TA98; TA98, 625 μg/Plate",32 Colony/Plate
same,Colony/Plate S-9 Mixture (−),"TA98; TA98, 625 μg/Plate",29 Colony/Plate
same,Colony/Plate S-9 Mixture (+),"TA98; TA98, 1250 μg/Plate",33 Colony/Plate
same,Colony/Plate S-9 Mixture (−),"TA98; TA98, 1250 μg/Plate",29 Colony/Plate
same,Colony/Plate S-9 Mixture (+),"TA98; TA98, 2500 μg/Plate",37 Colony/Plate
same,Colony/Plate S-9 Mixture (−),"TA98; TA98, 2500 μg/Plate",24 Colony/Plate
same,Colony/Plate S-9 Mixture (+),"TA98; TA98, 5000 μg/Plate",28 Colony/Plate
same,Colony/Plate S-9 Mixture (−),"TA98; TA98, 5000 μg/Plate",26 Colony/Plate
same,Colony/Plate S-9 Mixture (+),TA1535; 317.5 μg/Plate,13 Colony/Plate
same,Colony/Plate S-9 Mixture (−),TA1535; 317.5 μg/Plate,18 Colony/Plate
same,Colony/Plate S-9 Mixture (+),TA1535; 625 μg/Plate,13 Colony/Plate
same,Colony/Plate S-9 Mixture (−),TA1535; 625 μg/Plate,15 Colony/Plate
same,Colony/Plate S-9 Mixture (+),TA1535; 1250 μg/Plate,7 Colony/Plate
same,Colony/Plate S-9 Mixture (−),TA1535; 1250 μg/Plate,17 Colony/Plate
same,Colony/Plate S-9 Mixture (+),TA1535; 2500 μg/Plate,12 Colony/Plate
same,Colony/Plate S-9 Mixture (−),TA1535; 2500 μg/Plate,17 Colony/Plate
same,Colony/Plate S-9 Mixture (+),TA1535; 5000 μg/Plate,10 Colony/Plate
same,Colony/Plate S-9 Mixture (−),TA1535; 5000 μg/Plate,13 Colony/Plate
same,Days for the test (death) Total,ICR mice [2]; 5 mg/kg,0/5
same,Days for the test (death) Total,ICR mice [2]; 10 mg/kg,0/5
same,Days for the Test (death) 3,"ICR mice [2]; 25 mg/kg, day 3",3
same,Days for the Test (death) 4,ICR mice [2]; 25 mg/kg,1
same,Days for the test (death) Total,ICR mice [2]; 25 mg/kg,4/5
same,Days for the test (death) 2,"ICR mice [2]; 50 mg/kg, day 2",3
same,Days for the Test (death) 4,ICR mice [2]; 50 mg/kg,1
same,Days for the Test (death) 5,"ICR mice [2]; 50 mg/kg, day 5",1
same,Days for the test (death) Total,ICR mice [2]; 50 mg/kg,5/5
same,Colony/Plate S-9 Mixture (+),[3]; 317.5 μg/Plate,11 Colony/Plate
same,Colony/Plate S-9 Mixture (−),[3]; 317.5 μg/Plate,10 Colony/Plate
same,Colony/Plate S-9 Mixture (+),[3]; 625 μg/Plate,14 Colony/Plate
same,Colony/Plate S-9 Mixture (−),[3]; 625 μg/Plate,6 Colony/Plate
same,Colony/Plate S-9 Mixture (+),[3]; 1250 μg/Plate,14 Colony/Plate
same,Colony/Plate S-9 Mixture (−),[3]; 1250 μg/Plate,11 Colony/Plate
same,Colony/Plate S-9 Mixture (+),[3]; 2500 μg/Plate,12 Colony/Plate
same,Colony/Plate S-9 Mixture (−),[3]; 2500 μg/Plate,10 Colony/Plate
same,Colony/Plate S-9 Mixture (+),[3]; 5000 μg/Plate,8 Colony/Plate
same,Colony/Plate S-9 Mixture (−),[3]; 5000 μg/Plate,11 Colony/Plate
same,Colony/Plate S-9 Mixture (+),"TA1537; TA1537, 317.5 μg/Plate",20 Colony/Plate
same,Colony/Plate S-9 Mixture (−),"TA1537; TA1537, 317.5 μg/Plate",17 Colony/Plate
same,Colony/Plate S-9 Mixture (+),"TA1537; TA1537, 625 μg/Plate",18 Colony/Plate
same,Colony/Plate S-9 Mixture (−),"TA1537; TA1537, 625 μg/Plate",14 Colony/Plate
same,Colony/Plate S-9 Mixture (+),"TA1537; TA1537, 1250 μg/Plate",18 Colony/Plate
same,Colony/Plate S-9 Mixture (−),"TA1537; TA1537, 1250 μg/Plate",10 Colony/Plate
same,Colony/Plate S-9 Mixture (+),"TA1537; TA1537, 2500 μg/Plate",21 Colony/Plate
same,Colony/Plate S-9 Mixture (−),"TA1537; TA1537, 2500 μg/Plate",8 Colony/Plate
same,Colony/Plate S-9 Mixture (+),"TA1537; TA1537, 5000 μg/Plate",21 Colony/Plate
same,Colony/Plate S-9 Mixture (−),"TA1537; TA1537, 5000 μg/Plate",9 Colony/Plate
COc1cc2c(c(OC)c1OC)-c1ccc(SC)c(=O)cc1[C@@H](NC(=O)c1cccc(CCl)c1)CC2 [Compound 9],immunosuppressive effect,[4],good immunosuppressive effect
"COc1cc2c(c(OC)c1OC)-c1ccc(S(C)(=O)=O)c(=O)cc1C(NC(=O)CCCO[N+](=O)[O-])CC2 (stereo not drawn) [Compound 10, 4-nitrooxy-N-(1,2,3-trimethoxy-10-methylsulfonyl-9-oxo-5,6,7,9-tetrahydro-benzo[a]heptarene-7-yl)-butylamide]",immunosuppressive effect,"[4]; MLR, FIG. 1",good immunosuppressive effect
COc1cc2c(c(OC)c1OC)-c1ccc(SC)c(=O)cc1[C@@H](NC(=O)c1ccc(CO[N+](=O)[O-])cc1)CC2 [Compound 11],immunosuppressive effect,[4],good immunosuppressive effect
"CC(=O)O[C@H]1C(=O)[C@@]2(C)[C@H]([C@H](OC(=O)c3ccccc3)[C@]3(O)C[C@H](OC(=O)[C@H](O)[C@@H](NC(=O)c4ccccc4)c4ccccc4)C(C)=C1C3(C)C)[C@]1(OC(C)=O)CO[C@@H]1C[C@@H]2O [Taxol, reference compound]",EC50,XF-498 (human CNS),1.7 nM
same,EC50,[5],1150 nM
same,EC50,[6],0.04 nM
same,EC50,[7],0.3 nM
same,EC50,HCT-15 (human colon),0.1 nM
same,EC50,SKOV-3 (human ovarian),1.2 nM
same,EC50,[8],0.02 nM
same,EC50,[9],943 nM
same,EC50,SKMEL-2 (human melanoma),0.1 nM
